# In patent US7655800B2, “Crystalline 1H-imidazo[4,5-b]pyridin-5-amine, 7-[5-[(cyclohexylmethylamino)-methyl]-1H-indol-2-yl]-2-methyl, sulfate (1:1), trihydrate and its pharmaceutical uses” (Eisai R & D Management Co., Ltd., priority 2005, dated 2010):
# Counter-ions that a name gives are not always drawn.
# Experiments:
# Type in all cases: physicochemical
# [1] = Hygroscopicity measurements (controlled-atmosphere microbalance, adsorption/desorption isotherm); conditions: for hygroscopicity: general statement, in words
# Method: Hygroscopicity Measurements: Samples were exposed to various relative humidity (RH) conditions at 25° C. using an automated controlled-atmosphere microbalance, MB-300W (VTI Corporation, FL, USA). In this system, a sample was suspended in an isothermal chamber at 25° C., and the RH was regulated from 5% to 95% by adjusting the relative flow rates of dry (0% RH) and moist (100% RH) nitrogen. The weight of the sample was measured every 2 min with the microbalance. The weight stability criterion employed for the equilibrium was that the maximum weight change for each measurement was less than 0.2% (w/w).
# [2] = Physical stability of crystalline E6070 under stressed storage (XRD, TG-DTA)
# Method: Crystalline E6070 was placed on the sample platform of an X-ray powder diffractometer (RINT-2000, Rigaku, Japan) and analyzed under the conditions shown in Table 3.
# Thermal Analyses: Using a Rigaku Thermoflex TAS20 TG8101D (Rigaku, Tokyo, Japan) therogravimetric-differential thermal analyses (TG-DTA) were performed under the measurement conditions in Table 9. The temperature axis and the cell constant were calibrated with indium. The solid sample (1-5 mg) was accurately weighed into an open aluminum pan and then heated.
# The physical stability of crystalline E6070 was evaluated under the following two conditions: 60° C. for a month and 40° C./75% RH (open) for a month.
# [3] = Solubility in water of amorphous versus crystalline E6070; conditions: in words
# [4] = 40° C./75% RH (open) for a month
compound,measurement,setting,value
"Cc1nc2nc(N)cc(-c3cc4cc(CN(C)C5CCCCC5)ccc4[nH]3)c2[nH]1 [crystalline E6070, 1H-imidazo[4,5-b]pyridin-5-amine, 7-[5-[(cyclohexylmethylamino)-methyl]-1H-indol-2-yl]-2-methyl, sulfate (1:1), trihydrate]",moisture uptake or loss on exposure to controlled humidities,[1]; from 0% to 93% RH at 25° C.,not found to take up or lose any moisture
same,hygroscopicity,"[1]; listed as Crystalline E6070, trihydrate",very low hygroscopicity
same,hygroscopicity,[1]; trihydrate,non-hygroscopic
same,TG-DTA thermogram after storage compared with initial,[2]; [4],same TG-DTA thermogram as the initial
same,change in XRD pattern after storage,[2]; [4],no change
same,TG-DTA thermogram after storage compared with initial,[2]; 60° C. for a month,same TG-DTA thermogram as the initial
same,change in XRD pattern after storage,[2]; 60° C. for a month,no change
same,physical stability in the solid state (conclusion),"[2]; both stressed conditions, one month",physically stable in the solid state
same,solubility in water,[3],much less soluble in water
